{"source": "paper PMC10865825", "about": "“Sugar-binding and split domain combinations in repeats-in-toxin adhesins from Vibrio cholerae and Aeromonas veronii mediate cell-surface recognition and hemolytic activities” (mBio, 2024)", "target": "T1, AvSBD-UKD (sugar-binding domain and split Ig-like domain of the A. veronii RTX adhesin, WP_103422706.1)", "T1 construct": "AvSBD-UKD, 40 kDa ortholog construct (WP_103422706.1), spanning SBD and UKD", "assay": "isothermal titration calorimetry ([…]°C, one-site model, N = […])", "set-up": "species or system Aeromonas veronii"}
{"smiles": "C[C@@H]1OC(O)[C@@H](O)[C@H](O)[C@@H]1O", "note": "(stereo partly drawn) [L-fucose]", "values": [{"measurement": "Kd", "result": 15, "unit": "µM"}]}
